# Experimental data as given in US20250051344A1, “BIFUNCTIONAL SELECTIVE DEGRADERS OF SMARCA2 AND THERAPEUTIC USES THEREOF” (Nurix Therapeutics, Inc., priority 2023, published 2025).
# How the values were obtained:
# SMARCA2 = biological target: T1, SMARCA2 (Homo sapiens, UniProt P51531); experiment: SMARCA2 Cellular Degradation Assay (Western blot analysis on Jess platform); format: cell-based; conditions: for DC50 / Dmax: cellular degradation; for Fold Selectivity SMARCA4/2: ratio DC50 SMARCA4 / DC50 SMARCA2
# T1 construct: endogenous in cells
# Method in brief: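 Lysates of cells extracted from tumors, 5 μg total protein per capillary, were probed for SMARCA2 and β-actin by capillary Western on Jess using chemiluminescence and fluorescence detection. SMARCA2 peak area was background-subtracted and normalized to actin, then expressed as % remaining relative to vehicle control.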
# SMARCA4 = biological target: T2, SMARCA4 (Homo sapiens, UniProt P51532); experiment: Cellular degradation assay, SMARCA4 (Table 1); format: cell-based
# T2 construct: endogenous in cells
# T2 sequence (P51532 whole entry, species assumed): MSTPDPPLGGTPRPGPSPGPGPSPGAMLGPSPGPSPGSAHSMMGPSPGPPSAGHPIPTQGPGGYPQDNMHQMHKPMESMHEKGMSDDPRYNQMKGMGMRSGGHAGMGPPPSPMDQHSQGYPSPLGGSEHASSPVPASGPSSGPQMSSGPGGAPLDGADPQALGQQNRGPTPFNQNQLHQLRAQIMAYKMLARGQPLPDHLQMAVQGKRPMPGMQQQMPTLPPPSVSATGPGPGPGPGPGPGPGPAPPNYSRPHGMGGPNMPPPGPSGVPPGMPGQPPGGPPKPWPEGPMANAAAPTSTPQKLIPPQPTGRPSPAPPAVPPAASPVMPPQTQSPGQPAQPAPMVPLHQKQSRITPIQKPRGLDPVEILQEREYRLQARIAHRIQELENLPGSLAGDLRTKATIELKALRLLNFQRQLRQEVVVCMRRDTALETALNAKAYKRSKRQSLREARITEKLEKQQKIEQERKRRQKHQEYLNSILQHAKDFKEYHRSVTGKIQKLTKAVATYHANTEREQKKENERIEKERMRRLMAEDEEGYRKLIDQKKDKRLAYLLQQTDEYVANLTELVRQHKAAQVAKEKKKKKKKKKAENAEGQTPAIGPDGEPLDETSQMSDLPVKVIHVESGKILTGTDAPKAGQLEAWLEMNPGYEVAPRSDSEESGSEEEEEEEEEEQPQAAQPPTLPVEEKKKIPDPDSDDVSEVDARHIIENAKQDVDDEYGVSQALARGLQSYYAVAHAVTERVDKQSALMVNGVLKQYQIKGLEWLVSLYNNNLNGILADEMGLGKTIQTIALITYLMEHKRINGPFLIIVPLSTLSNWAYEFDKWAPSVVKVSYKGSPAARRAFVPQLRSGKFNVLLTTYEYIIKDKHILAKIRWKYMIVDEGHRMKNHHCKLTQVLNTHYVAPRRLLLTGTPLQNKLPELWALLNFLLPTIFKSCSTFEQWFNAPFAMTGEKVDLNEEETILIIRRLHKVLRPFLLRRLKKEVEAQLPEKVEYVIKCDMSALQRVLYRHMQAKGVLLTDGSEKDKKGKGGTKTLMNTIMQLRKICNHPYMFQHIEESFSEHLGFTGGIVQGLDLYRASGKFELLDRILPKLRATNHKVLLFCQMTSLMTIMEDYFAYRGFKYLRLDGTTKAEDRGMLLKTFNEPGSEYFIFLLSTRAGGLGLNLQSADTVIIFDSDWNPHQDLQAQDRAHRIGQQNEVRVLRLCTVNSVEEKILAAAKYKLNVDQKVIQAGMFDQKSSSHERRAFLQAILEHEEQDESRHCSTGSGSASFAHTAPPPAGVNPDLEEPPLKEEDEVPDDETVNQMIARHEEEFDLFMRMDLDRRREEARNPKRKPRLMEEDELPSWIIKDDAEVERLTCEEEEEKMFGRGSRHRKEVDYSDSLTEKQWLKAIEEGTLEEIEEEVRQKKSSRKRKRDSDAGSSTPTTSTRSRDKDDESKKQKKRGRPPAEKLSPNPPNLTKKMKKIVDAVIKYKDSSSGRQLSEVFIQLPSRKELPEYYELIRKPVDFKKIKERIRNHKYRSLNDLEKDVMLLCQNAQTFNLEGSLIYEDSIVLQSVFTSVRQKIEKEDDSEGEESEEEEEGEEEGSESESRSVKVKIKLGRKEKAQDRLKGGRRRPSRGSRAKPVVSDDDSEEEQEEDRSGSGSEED
# T1 sequence (P51531 whole entry, species assumed): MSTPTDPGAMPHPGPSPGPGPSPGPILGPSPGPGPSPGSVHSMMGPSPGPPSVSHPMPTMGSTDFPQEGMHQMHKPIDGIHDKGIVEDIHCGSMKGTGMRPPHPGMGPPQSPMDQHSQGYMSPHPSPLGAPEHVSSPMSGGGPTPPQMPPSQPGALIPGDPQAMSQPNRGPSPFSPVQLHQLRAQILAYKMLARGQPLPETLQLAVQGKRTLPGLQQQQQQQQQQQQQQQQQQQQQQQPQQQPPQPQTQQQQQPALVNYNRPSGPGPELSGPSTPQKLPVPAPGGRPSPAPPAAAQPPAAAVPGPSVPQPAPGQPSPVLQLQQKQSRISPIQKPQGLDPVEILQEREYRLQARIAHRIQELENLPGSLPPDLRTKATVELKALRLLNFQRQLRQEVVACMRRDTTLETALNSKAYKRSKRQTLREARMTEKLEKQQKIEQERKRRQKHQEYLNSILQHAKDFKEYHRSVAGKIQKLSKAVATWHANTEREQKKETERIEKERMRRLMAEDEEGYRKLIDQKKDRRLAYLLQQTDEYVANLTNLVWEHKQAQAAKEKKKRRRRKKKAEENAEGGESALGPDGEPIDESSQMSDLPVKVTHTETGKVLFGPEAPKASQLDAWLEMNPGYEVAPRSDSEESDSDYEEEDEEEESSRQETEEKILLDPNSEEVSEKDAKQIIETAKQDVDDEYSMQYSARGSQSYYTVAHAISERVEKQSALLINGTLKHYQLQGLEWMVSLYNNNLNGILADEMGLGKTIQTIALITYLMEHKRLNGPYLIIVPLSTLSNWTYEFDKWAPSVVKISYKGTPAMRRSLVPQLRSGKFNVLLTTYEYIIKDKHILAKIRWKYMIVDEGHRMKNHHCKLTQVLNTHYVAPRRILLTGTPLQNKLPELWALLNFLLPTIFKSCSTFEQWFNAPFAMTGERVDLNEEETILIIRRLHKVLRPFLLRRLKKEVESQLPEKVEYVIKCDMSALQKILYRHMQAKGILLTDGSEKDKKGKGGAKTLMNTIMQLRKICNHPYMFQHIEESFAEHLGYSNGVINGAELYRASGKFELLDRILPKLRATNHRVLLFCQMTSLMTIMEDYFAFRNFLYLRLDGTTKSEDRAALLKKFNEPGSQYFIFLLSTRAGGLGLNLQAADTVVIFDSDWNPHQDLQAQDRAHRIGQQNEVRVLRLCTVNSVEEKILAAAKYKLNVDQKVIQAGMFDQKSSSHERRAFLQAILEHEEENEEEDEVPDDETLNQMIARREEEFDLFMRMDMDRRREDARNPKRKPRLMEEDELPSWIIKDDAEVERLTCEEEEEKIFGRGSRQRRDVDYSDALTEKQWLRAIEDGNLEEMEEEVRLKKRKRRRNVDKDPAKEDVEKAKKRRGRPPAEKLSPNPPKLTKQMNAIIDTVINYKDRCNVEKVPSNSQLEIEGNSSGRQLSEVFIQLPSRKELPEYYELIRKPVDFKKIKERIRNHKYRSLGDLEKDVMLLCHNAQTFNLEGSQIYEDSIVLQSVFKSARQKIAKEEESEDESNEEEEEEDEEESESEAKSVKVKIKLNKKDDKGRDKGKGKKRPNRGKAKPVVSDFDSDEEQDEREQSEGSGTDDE
SMILES,DC50 (SMARCA2) [nM],Dmax (SMARCA2) [%],Fold Selectivity SMARCA4/2 (SMARCA2),DC50 (SMARCA4) [nM],Dmax (SMARCA4) [%]
"Cc1ccnn1C1(C(=O)N(C)C2CCN(CCC3CCN(c4ccc(C5CCC(=O)NC5=O)c(F)c4)CC3)CC2)CCN(c2cnnc(-c3ccccc3O)c2)CC1 (racemic) [Example 65, rac-N-{1-[2-(1-{4-[(3R)-2,6-dioxopiperidin-3-yl]-3-fluorophenyl}piperidin-4-yl)ethyl]piperidin-4-yl}-1-[6-(2-hydroxyphenyl)pyridazin-4-yl]-n-methyl-4-(5-methyl-1H-pyrazol-1-yl)piperidine-4-carboxamide]",3.33,89.2,27,88.6,55.4
"Cn1ccc(OC2(C(=O)N3CC4(CN(CCC5CCN(c6ccc(C7CCC(=O)NC7=O)c(F)c6)CC5)C4)C3)CCN(c3cnnc(-c4ccccc4O)c3)CC2)n1 (racemic) [Example 66, rac-3-(2-fluoro-4-(4-(2-(6-(1-(6-(2-hydroxyphenyl)pyridazin-4-yl)-4-((1-methyl-1H-pyrazol-3-yl)oxy)piperidine-4-carbonyl)-2,6-diazaspiro[3.3]heptan-2-yl)ethyl)piperidin-1-yl)phenyl)piperidine-2,6-dione]",10.6,73.7,947,–,20.7
"Cn1ccc(OC2(C(=O)N3CC4(CN(CCC5CCN(c6cccc7c6n(C)c(=O)n7C6CCC(=O)NC6=O)CC5)C4)C3)CCN(c3cnnc(-c4ccccc4O)c3)CC2)n1 (racemic) [Example 67, rac-3-(4-(4-(2-(6-(1-(6-(2-hydroxyphenyl)pyridazin-4-yl)-4-((1-methyl-1H-pyrazol-3-yl)oxy)piperidine-4-carbonyl)-2,6-diazaspiro[3.3]heptan-2-yl)ethyl)piperidin-1-yl)-3-methyl-2-oxo-2,3-dihydro-1h-benzo[d]imidazol-1-yl)piperidine-2,6-dione]",0.4,96.2,51,20.4,72.9
"COC1(C(=O)N(C)C2CCN(CCC3CCN(c4cccc5c4n(C)c(=O)n5C4CCC(=O)NC4=O)CC3)CC2)CCN(c2cnnc(-c3ccccc3O)c2)CC1 (racemic) [Example 68, rac-N-(1-(2-(1-(1-(2,6-dioxopiperidin-3-yl)-3-methyl-2-oxo-2,3-dihydro-1H-benzo[d]imidazol-4-yl)piperidin-4-yl)ethyl)piperidin-4-yl)-1-(6-(2-hydroxyphenyl)pyridazin-4-yl)-4-methoxy-n-methylpiperidine-4-carboxamide]",0.57,93.2,34,19.2,66.9
"CN(C(=O)C1(c2ccccc2)CCN(c2cnnc(-c3ccccc3O)c2)CC1)C1CCN(CCC2CCN(c3ccc(C4CCC(=O)NC4=O)cn3)CC2)CC1 (racemic) [Example 69, rac-N-(1-(2-(1-(5-(2,6-dioxopiperidin-3-yl)pyridin-2-yl)piperidin-4-yl)ethyl)piperidin-4-yl)-1-(6-(2-hydroxyphenyl)pyridazin-4-yl)-N-methyl-4-phenylpiperidine-4-carboxamide]",6.23,85.3,1605,–,44.1
"CN(C(=O)C1(OC2CC2)CCN(c2cnnc(-c3ccccc3O)c2)CC1)C1CCN(CCC2CCN(c3ccc([C@H]4CCC(=O)NC4=O)c(F)c3)CC2)CC1 (racemic) [Example 70, rac-(r)-4-cyclopropoxy-n-(1-(2-(1-(4-(2,6-dioxopiperidin-3-yl)-3-fluorophenyl)piperidin-4-yl)ethyl)piperidin-4-yl)-1-(6-(2-hydroxyphenyl)pyridazin-4-yl)-n-methylpiperidine-4-carboxamide]",8.6,81.4,1163,–,35.1
"COC1(C(=O)N(C)C2CCN(CCC3CCN(c4ccc(C5CCC(=O)NC5=O)c(F)c4)CC3)CC2)CCN(c2cnnc(-c3ccccc3O)c2)CC1 (racemic) [Example 71, rac-N-(1-(2-(1-(4-(2,6-dioxopiperidin-3-yl)-3-fluorophenyl)piperidin-4-yl)ethyl)piperidin-4-yl)-1-(6-(2-hydroxyphenyl)pyridazin-4-yl)-4-methoxy-n-methylpiperidine-4-carboxamide]",8.07,81.6,1239,–,32.2
"Cn1c(=O)n([C@H]2CCC(=O)NC2=O)c2cccc(N3CCC(C(=O)N4C[C@@H]5[C@H](C4)[C@H]5C(=O)NCC4(c5ccccc5)CCN(c5cnnc(-c6ccccc6O)c5)CC4)CC3)c21 (racemic) [Example 72, (1r,5s,6r)-3-(1-(1-((rs)-2,6-dioxopiperidin-3-yl)-3-methyl-2-oxo-2,3-dihydro-1h-benzo[d]imidazol-4-yl)piperidine-4-carbonyl)-n-((1-(6-(2-hydroxyphenyl)pyridazin-4-yl)-4-phenylpiperidin-4-yl)methyl)-3-azabicyclo[3.1.0]hexane-6-carboxamide]",0.61,95.8,42,25.9,75.4
"O=C1CC[C@@H](c2ccc(C3CCN(CC(=O)N4C[C@@H]5[C@H](C4)[C@H]5C(=O)NCC4(c5ccccc5)CCN(c5cnnc(-c6ccccc6O)c5)CC4)CC3)cc2)C(=O)N1 (racemic) [Example 73, (1R,5S,6S)-3-[2-(4-{4-[(3RS)-2,6-dioxopiperidin-3-yl]phenyl}piperidin-1-yl)acetyl]-N-({1-[6-(2-hydroxyphenyl)pyridazin-4-yl]-4-phenylpiperidin-4-yl}methyl)-3-azabicyclo[3.1.0]hexane-6-carboxamide]",11,79.8,910,–,21
"CN(C(=O)C1(c2ccncc2)CCN(c2cnnc(-c3ccccc3O)c2)CC1)C1CCN(CCC2CCN(c3ccc(C4CCC(=O)NC4=O)c(F)c3)CC2)CC1 (racemic) [Example 75, rac-N-{1-[2-(1-{4-[(3R)-2,6-dioxopiperidin-3-yl]-3-fluorophenyl}piperidin-4-yl)ethyl]piperidin-4-yl}-1-[6-(2-hydroxyphenyl)pyridazin-4-yl]-n-methyl-4-(pyridin-4-yl)piperidine-4-carboxamide]",2.18,90,4587,–,35.3
"C[C@H]1C[C@H](NC(=O)C2(c3ccccc3)CCN(c3cnnc(-c4ccccc4O)c3)CC2)CCN1C(=O)CN1CCC(c2ccc([C@H]3CCC(=O)NC3=O)cc2)CC1 (racemic) [Example 76, n-((2s,4r)-1-(2-(4-(4-((rs)-2,6-dioxopiperidin-3-yl)phenyl)piperidin-1-yl)acetyl)-2-methylpiperidin-4-yl)-1-(6-(2-hydroxyphenyl)pyridazin-4-yl)-4-phenylpiperidine-4-carboxamide]",9.53,83.5,1049,–,24.7
"CN(C(=O)C1(c2cc3ccccn3n2)CCN(c2cnnc(-c3ccccc3O)c2)CC1)C1CCN(CCC2CCN(c3ccc(C4CCC(=O)NC4=O)cc3)CC2)CC1 (racemic) [Example 77, rac-N-{1-[2-(1-{4-[(3R)-2,6-dioxopiperidin-3-yl]phenyl}piperidin-4-yl)ethyl]piperidin-4-yl}-1-[6-(2-hydroxyphenyl)pyridazin-4-yl]-N-methyl-4-{pyrazolo[1,5-a]pyridin-2-yl}piperidine-4-carboxamide]",4.12,87,2427,–,44.2
